Earlier results as cited in patent US20080031932A1, “Transdermal atomoxetine formulations and associated methods” (Watson Laboratories, Inc., priority 2006, published 2008).

Experiments:
[1] = biological target: norepinephrine reuptake transporter (Homo sapiens, UniProt P23975); details: compared to atomoxetine
[2] = test system: other receptor systems
[3] = biological target: serotonin reuptake (Homo sapiens, UniProt P31645)
serotonin reuptake, sequence (P31645 whole entry): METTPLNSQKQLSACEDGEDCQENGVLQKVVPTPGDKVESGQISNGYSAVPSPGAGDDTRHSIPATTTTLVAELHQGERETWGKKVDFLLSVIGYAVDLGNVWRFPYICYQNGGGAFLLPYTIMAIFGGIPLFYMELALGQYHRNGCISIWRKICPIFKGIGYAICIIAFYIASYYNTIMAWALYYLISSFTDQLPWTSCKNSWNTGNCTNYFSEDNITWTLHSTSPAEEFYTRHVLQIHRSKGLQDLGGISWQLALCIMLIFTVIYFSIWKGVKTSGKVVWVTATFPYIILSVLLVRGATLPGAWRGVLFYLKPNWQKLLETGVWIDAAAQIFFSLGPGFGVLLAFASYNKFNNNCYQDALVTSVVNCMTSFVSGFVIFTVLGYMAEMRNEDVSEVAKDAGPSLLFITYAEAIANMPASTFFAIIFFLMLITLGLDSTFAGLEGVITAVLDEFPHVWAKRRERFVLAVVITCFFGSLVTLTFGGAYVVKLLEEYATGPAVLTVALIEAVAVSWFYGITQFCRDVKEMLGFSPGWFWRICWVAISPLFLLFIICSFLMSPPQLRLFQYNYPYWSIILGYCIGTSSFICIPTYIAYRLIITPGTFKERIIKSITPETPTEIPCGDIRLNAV

norepinephrine reuptake transporter, sequence (P23975 whole entry): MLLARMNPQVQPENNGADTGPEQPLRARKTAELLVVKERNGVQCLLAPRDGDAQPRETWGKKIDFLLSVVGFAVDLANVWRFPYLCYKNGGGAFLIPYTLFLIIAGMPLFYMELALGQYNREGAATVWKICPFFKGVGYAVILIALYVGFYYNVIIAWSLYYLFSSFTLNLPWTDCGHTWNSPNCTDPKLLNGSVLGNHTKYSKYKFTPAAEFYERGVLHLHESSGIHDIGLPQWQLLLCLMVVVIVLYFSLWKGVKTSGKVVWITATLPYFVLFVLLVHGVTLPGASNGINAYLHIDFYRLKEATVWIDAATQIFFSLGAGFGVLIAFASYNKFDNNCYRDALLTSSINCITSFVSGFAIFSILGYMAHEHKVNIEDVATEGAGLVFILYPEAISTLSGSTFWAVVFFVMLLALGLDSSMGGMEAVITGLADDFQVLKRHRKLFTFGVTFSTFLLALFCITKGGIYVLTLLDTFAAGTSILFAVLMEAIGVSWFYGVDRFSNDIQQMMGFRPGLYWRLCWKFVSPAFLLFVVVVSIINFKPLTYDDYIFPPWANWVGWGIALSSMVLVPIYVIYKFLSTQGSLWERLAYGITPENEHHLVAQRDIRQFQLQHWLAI

Cc1ccccc1OC(CCN)c1ccccc1 (stereo not drawn) [NDA, N-desmethylatomoxetine]
inhibitory activity to the norepinephrine reuptake transporter [1]: less active
affinity to other receptor systems [2]: little affinity

CNCCC(Oc1ccccc1C)c1ccccc1 (single isomer, unassigned; (-)) [atomoxetine, (−)-N-methyl-3-phenyl-3-(o-tolyloxy)-propylamine]
plasma half-life (individuals having normal activity in the CYP2D6 pathway): about 5 hours
half-life (individuals with reduced activity in the CYP2D6 pathway (poor metabolizers)): about 24 hours

CNCCC(Oc1ccc(O)cc1C)c1ccccc1 (stereo not drawn) [Example 4HA, 4-hydroxyatomoxetine]
affinity to other receptor systems [2]: little affinity
serotonin reuptake inhibition [3]: pharmacologically active serotonin reuptake inhibitor
